Publication PMC9415646, “Improving Aqueous Solubility and In Vitro Pharmacokinetic Properties of the 3-Nitroimidazo[1,2-a]pyridine Antileishmanial Pharmacophore” (Pharmaceuticals, 2022)
Several values for one entry are separate records, joined by “and”; a condition that tells them apart may be missing. Identical values can stand only once.

Assays:
[1] = system: L. infantum promastigotes; test: Antileishmanial activity against L. infantum promastigotes (luciferase assay); format: cell-based; settings: Leishmania infantum, 72 h, read-out: EC50 L. infantum Pro.
Procedure: L. infantum promastigotes (MHOM/MA/67/ITMAP-263, CNR Leishmania, Montpellier, France, expressing luciferase activity) were used in the following tests. The effects of the tested compounds on the growth of L. infantum promastigotes were assessed by Luciferase Assay. Briefly, promastigotes in log-phase in RPMI 1640 medium supplemented with 10% fetal calf serum (FCS), 2 mM L-glutamine and antibiotics (100U/mL penicillin, 100 µg/mL streptomycin and 50µg/mL geneticin), were incubated at an average density of 10^6 parasites/mL (100 µL/well) in sterile 96-well plates with various concentrations of compounds dissolved in DMSO (final concentration less than 0.5% v/v), in duplicate. Appropriate controls (100 µL/well) treated by DMSO and reference drugs (purchased for the majority from Sigma Aldrich) were added to each set of experiments. After a 72 h incubation period at 24 °C, each plate-well was then microscope-examined for detecting possible precipitate formation. To estimate the luciferase activities of promastigotes, 80 µL of each well are transferred in white 96-well plates, Steady Glow reagent (Promega) was added according to manufacter’s instructions, and plates were incubated for 2 min. The luminescence was measured in a FLUOstar Omega (BMG Labtech, Champigny-sur-Marne, France). […] EC50 were calculated by non-linear regression analysis processed on dose–response curves, using TableCurve 2D V5 software.

[2] = system: L. donovani promastigotes; test: Antileishmanial activity against L. donovani promastigotes (MTT assay); format: cell-based; settings: Leishmania donovani; promastigotes, 72 h, MTT; read-out: EC50 L. donovani Pro.
Procedure: The Leishmania species used in this study were L. donovani (MHOM/IN/00/DEVI) purchased from CNR Leishmania (Montpellier, France). Leishmania promastigote forms were grown in Schneider’s Drosophila medium (Life Technologies, Saint-Aubin, France) supplemented with 100 U/mL penicillin, 100 µg/mL streptomycin, 2 mM L-glutamine and 20% FCS (Life Technologies, Saint-Aubin, France) at 27 °C. The in vitro evaluation of the tested compound’s antileishmanial activity on promastigote forms was carried out by MTT assay according to the Mosmann protocol with some modifications. Briefly, promastigotes in log-phase were incubated at an average density of 10^6 parasites/mL in sterile 96-well plates with various concentrations of compound dissolved in DMSO (final concentration less than 0.5% v/v), in duplicate. Appropriate controls treated with DMSO, Miltefosine, Amphotericin B, Fexinidazole, and Fexinidazole sulfone (reference drugs purchased from Sigma-Aldrich, Saint-Louis, Missouri, USA) were added to each set of experiments. After a 72 h incubation period at 27 °C, parasitic metabolic activity was determined. Each plate-well was then microscope-analyzed to detect any precipitate formation. 20 µL of MTT (3-(4,5-dimethylthiazol-2-yl)-2,5-diphenyltetrazolium bromide) (Sigma-Aldrich, Saint-Louis, Missouri, USA) solution (5 mg/mL in PBS) were added to each well and incubated for 4 h at 27 °C. The enzyme reaction was then stopped by addition of 100 µL of 50% isopropanol–10% sodium dodecyl sulfate. Plates were shaken vigorously at 300 rpm for 10 min. The absorbance was measured at 570 nm in a BIO-TEK Elx808 (Biotek, Colmar, France) absorbance microplate reader. […] EC50 values were calculated by non-linear regression analysis processed dose-response curves, using TableCurve 2D V5.0 software (Systat Software Inc. (Palo Alto, CA, USA)). EC50 values represent the mean value calculated from at least three separate experiments.

[3] = Redox potential of the nitro group by cyclic voltammetry; format: physicochemical; settings: cyclic voltammetry in DMSO, corrected versus NHE
Procedure: Voltammetric measurements were carried out with a potentiostat Autolab PGSTAT100 (ECO Chemie, Utrecht, The Netherlands) controlled by GPES 4.09 software (ECO Chemie, Utrecht, The Netherlands). Experiments were performed at room temperature in a homemade airtight three–electrode cell connected to a vacuum/argon line. The reference electrode consisted of a saturated calomel electrode (SCE) separated from the solution by a bridge compartment. The counter electrode was a platinum wire of 1 cm^2 apparent surface. The working electrode was a GC microdisk (1.0 mm in diameter–Bio-logic SAS). The supporting electrolyte (nBu4N)[PF6] (Fluka, 99% puriss electrochemical grade) and the solvent DMSO (Sigma-Aldrich puriss p.a. dried <0.02% water) were used as received and simply degassed under argon. The solutions used during electrochemical analyses were typically 10^−3 M in compound and 0.1 M in supporting electrolyte. Before each measurement, the solutions were degassed by bubbling Ar, and the working electrode was polished with a polishing machine (Presi P230, Eybens, France). Under the experimental conditions adopted in this work, the half-wave potential (E1/2) of the ferrocene Fc+/Fc couple in DMSO was E1/2 = 0.45 V vs. SCE. Experimental peak potentials were measured versus SCE and converted to NHE by adding 0.241 V.

[4] = Cytotoxicity on THP-1 cell line (MTT); format: cell-based; settings: human, THP-1 cells, THP1 cell line
Procedure: The plates were incubated for 72 h at 37 °C. Each well plate was then microscope-examined for detecting possible precipitate formation before the medium was aspirated from the wells. 100 µL of MTT solution (0.5 mg/mL in medium) were then added to each well. Cells were incubated for 2 h at 37 °C. […] Plates were shaken vigorously (300 rpm) for 10 min. The absorbance was measured at 570 nm using a BIO-TEK ELx808 Absorbance Microplate Reader. DMSO was used as blank and doxorubicin (purchased from Sigma Aldrich) as positive control. Cell viability was calculated as percentage of control (cells incubated with DMSO). […] (Palo Alto, CA, USA). CC50 values represent the mean value calculated from three separate experiments.

[5] = system: L. infantum axenic amastigotes; test: Antileishmanial activity on L. infantum axenic amastigotes (luciferase assay); format: cell-based; settings: Leishmania infantum, 48 h, read-out: EC50 L. infantum Axenic Ama.
Procedure: L. infantum promastigotes were harvested in logarithmic phase of growth by centrifugation at 900× g for 10 min. The supernatant was removed carefully and was replaced by the same volume of RPMI 1640 complete medium at pH 5.4 and incubated for 24 h at 24 °C. The acidified promastigotes were then incubated for 24 h at 37 °C in a ventilated flask to transform them into axenic amastigotes. The amastigote stage was checked both by electron microscopy (short flagellum with small bulbous tip extending beyond a spherical cell body) and RT-PCR to confirm the overexpression of ATG8 and amastin genes in amastigotes, relative to promastigotes. The effects of the tested compounds on the growth of L. infantum axenic amastigotes were assessed as follows. L. infantum amastigotes were incubated at a density of 2 × 10^6 parasites/mL in sterile 96-well plates with various concentrations of compounds dissolved in DMSO (final concentration less than 0.5% v/v), in duplicate. Appropriate controls treated with DMSO, amphotericin B, miltefosine, fexinidazole and fexinidazole sulfone were added to each set of experiments. After a 48 h incubation period at 37 °C, each plate-well was then microscopically examined to detect any precipitate formation.
• Luciferase activity and determination of EC50 were performed as above.

[6] = Cytotoxicity evaluation on HepG2 cell line (MTT); format: cell-based; settings: human, HepG2 cells
Procedure: The tested molecules’ cytotoxicity was assessed according to the method of Mosmann with slight modifications. […] Triplicate assays were performed for each sample. Each plate-well was then microscope-examined to detect possible precipitate formation before the medium was aspirated from the wells. 100 µL of MTT (3-(4,5-dimethyl-2-thiazolyl)-2,5-diphenyl-2H-tetrazolium bromide) solution (0.5 mg/mL in medium without FCS) were then added to each well. […] Plates were shaken vigorously (700 rpm) for 10 min. The absorbance was measured at 570 nm with 630 nm as reference wavelength using a BIO-TEK ELx808 Absorbance Microplate Reader. DMSO was used as blank and doxorubicin (purchased from Sigma Aldrich) as positive control. Cell viability was calculated as percentage of control (cells incubated without compound). […] (Palo Alto, CA, USA)). CC50 values represent the mean value calculated from three separate experiments.

SMILES	EC50 [1]	EC50 [2]	E0 (redox potential of the nitro group) [3]	CC50 at 72 h [4]	EC50 [5]	CC50 at 72 h [6]	melting point
O=[N+]([O-])c1c(CS(=O)(=O)c2ccc(Cl)cc2)nc2c(Br)cc(Cl)cn12 [Compound 2d, 8-Bromo-6-Chloro-2-[(4-Chlorophenylsulfonyl)methyl]-3-Nitroimidazo[1,2-a]pyridine]	3.5 ± 0.4 µM	3 ± 0.4 µM	−0.62 V	> 31.2 µM	2.1 ± 0.3 µM	> 12.5 µM	222 °C
O=[N+]([O-])c1c(CS(=O)(=O)C2CC2)nc2c(Br)cc(Cl)cn12 [Compound 2i, 8-Bromo-6-Chloro-2-[(cyclopropylsulfonyl]methyl)-3-Nitroimidazo[1,2-a]pyridine]	> 50 µM	> 25 µM	−0.63 V	> 50 µM	> 50 µM	> 6.2 µM	250 °C
O=[N+]([O-])c1c(CS(=O)(=O)c2ccc(C(F)(F)F)cc2)nc2c(Cl)cc(Cl)cn12 [Compound 1d, 6,8-Dichloro-3-Nitro-2-[(4-Trifluoromethylphenylsulfonyl)methyl]imidazo[1,2-a]pyridine]	> 100 µM	4.1 ± 0.4 µM	−0.60 V and −0.6 V	23.2 ± 1.9 µM	2.2 ± 0.1 µM	> 15.6 µM	196 °C
O=[N+]([O-])c1c(CS(=O)(=O)c2ccc(F)cc2)nc2c(Cl)cc(Cl)cn12 [Compound 1c, 6,8-Dichloro-2-[(4-fluorophenylsulfonyl)methyl]-3-nitroimidazo[1,2-a]pyridine]	> 100 µM	5.8 ± 1.9 µM	−0.60 V and −0.6 V	22.5 ± 1.1 µM	> 1.6 µM	> 7.8 µM	224 °C
CC(C)S(=O)(=O)Cc1nc2c(Sc3ccc(Cl)cc3)cc(Cl)cn2c1[N+](=O)[O-] [Compound 3g, 6-Chloro-8-[(4-Chlorophenyl)thio]-2-[(isopropylsulfonyl)methyl]-3-Nitroimidazo[1,2-a]pyridine]	2.4 ± 0.6 µM	2.2 ± 0.3 µM	−0.63 V	> 31.2 µM	3.2 ± 0.1 µM	22.2 ± 5.5 µM	208 °C
O=[N+]([O-])c1c(C[S+]([O-])c2ccccc2)nc2c(Br)cc(Cl)cn12 (centres unmarked) [Compound 5, 8-Bromo-6-Chloro-3-Nitro-2-[(phenylsulfinyl)methyl]imidazo[1,2-a]pyridine]	–	–	–	–	–	–	198 °C
CC(C)S(=O)(=O)Cc1nc2c(Br)cc(Cl)cn2c1[N+](=O)[O-] [Compound 2h, 8-Bromo-6-Chloro-2-[(isopropylsulfonyl)methyl]-3-Nitroimidazo[1,2-a]pyridine]	61.2 ± 3.4 µM	> 25 µM	−0.65 V	> 100 µM	> 50 µM	> 62.5 µM	183 °C
O=[N+]([O-])c1c(CS(=O)(=O)CCC(F)(F)F)nc2c(Br)cc(Cl)cn12 [Compound 2j, 8-Bromo-6-Chloro-3-Nitro-2-[(3,3,3-Trifluoropropylsulfonyl)methyl]imidazo[1,2-a]pyridine]	1.9 ± 0.4 µM	14.4 ± 1.6 µM	−0.60 V and −0.6 V	26 ± 1.2 µM	20.1 ± 5.6 µM	42.9 ± 12.3 µM	181 °C
O=[N+]([O-])c1c(CS(=O)(=O)c2ccc(F)cc2)nc2c(Br)cc(Cl)cn12 [Compound 2e, 8-Bromo-6-Chloro-2-[(4-Fluorophenylsulfonyl)methyl]-3-Nitroimidazo[1,2-a]pyridine]	> 100 µM	2.8 ± 0.5 µM	−0.64 V	33.3 ± 1.4 µM	3.3 ± 0.1 µM	> 7.8 µM	222 °C
COc1cccc2c1C(=O)c1c(O)c3c(c(O)c1C2=O)C[C@@](O)(C(=O)CO)C[C@@H]3O[C@H]1C[C@H](N)[C@H](O)[C@H](C)O1 [Doxorubicin, reference compound]	–	–	–	0.8 ± 0.1 µM	–	0.2 ± 0.02 µM	–
